Experimental data as given in patent US5229265A, “Process for analyzing clastogenic agents” (Litron Laboratories, priority 1990, dated 1993).
Values joined by “and” are separate entries in the source; they are usually repeats but may differ in a detail not shown here. Identical values can stand only once.

System: polychromatic cells (PCEs)
Experiment: PCE count in blood by flow cytometry
Type: in vivo, mouse
Conditions: MMS 100 μg/g body weight IP at 0 and 48 hours
Protocol: When two dyes are used for simultaneous micronucleus and PCE discrimination, the cell suspension is prepared as follows: The Hoechst 33258 working solution described above is prepared and is filtered through an 0.2 micron Acro-disk (Gilman Sciences). In addition, a propidium iodide (PI) working solution is prepared (5 mg PI/100 ml phosphate buffered saline (PBS)). A buffer-dye solution is then prepared by adding the PI solution (100 μl) and Hoechst 33258 working solution (25 μl) to PBS (867.5 μl). The resulting buffer-dye solution is then dispensed (992.5 μl) into samples tubes. A sample of fixed blood (15 μl) is then added to the corresponding tube. When blood from a malaria (P. berghei) infected mouse was fixed and stained by this procedure, the bivariate pattern shown in FIG. 1B resulted, in which a stronger red fluorescence signal was obtained. In this case, good resolution is achieved if BSA is omitted from the stained cell suspension. The pH of the stained solution is important for good fluorescence emission profiles and resolution of the different cell populations. With Hoechst 33258 and propidium iodide, good results can be obtained in the range from pH 6 to pH 8. Lower or higher pH levels cause a broadening of the fluorescence patterns which adversely affect the resolution of the PCes and micronucleated cells. Operationally,it is advisable to store the fixed samples and analyze freshly stained samples.
Although it is inappropriate to directly compare the number of MNs in the 0 hr and 96 hr samples because of this PCE change, it is possible to normalize the data to take into account said change. An increase in the number of PCEs will cause a decrease in the total number of MNs counted in the PCE window for a 96 hour sample. […]
Another staining embodiment of this invention involves the use of dual parameter data acquisition in conjunction with two dyes, Hoechst 33258 and propidium iodide so as to analyze both MNs and PCEs. […] Propidium iodide endows the PCEs with a strong red fluorescence signal which pulls them out of the RBC contour. […]

## COS(C)(=O)=O [MMS, methyl methanesulfonate]
Hoechst 33258 & propidium iodide
  PCEs (96 hr): 17,684 PCEs per 500,000 cells and 15,408 PCEs per 500,000 cells and 13,095 PCEs per 500,000 cells and 14,356 PCEs per 500,000 cells
PCEs 96 hr/PCEs 0 hr per 100,000 total cells
  PCE Factor (K) (96 hr/0 hr): 2.49 and 1.36 and 2.07 and 2.22 and 2.12
